{
  "source": "patent US20230235277A1",
  "about": "“3D Tissue Culture Materials and Processes for Producing Same” (INSPHERO AG, priority 2014, published 2023)",
  "key": {"[1]": {"tested_on": "human liver microtissues", "experiment": "Long-term toxicity testing with human liver microtissues, 14 days treatment with 3 re-dosing", "assay_type": "cell-based", "conditions": "336 h, read-out: IC50 value of toxicity (cell death), dose-response"}, "[2]": {"tested_on": "2D cultures of human hepatocytes", "experiment": "Toxicity in 2D cultures of human hepatocytes", "assay_type": "cell-based", "conditions": "Hepatocyte, read-out: calculated IC50 value in 2D cultures of human hepatocytes"}, "[3]": {"tested_on": "human liver microtissues", "experiment": "Inflammation-mediated toxicity testing with human liver microtissues in presence and absence of LPS", "assay_type": "cell-based"}, "[4]": {"tested_on": "IL-6 secretion", "experiment": "Quantification of IL-6 secretion of liver microtissues by ELISA after LPS induction", "assay_type": "cell-based, human", "conditions": "hepatosphere induced for 48 h with 10 µg/ml LPS"}},
  "note": "“Also recorded” adds a separate entry of the source.",
  "data": [
    {"compound": "CC(=O)Nc1ccc(O)cc1", "note": "[acetaminophen]", "values": [
      {"measurement": "IC50", "setting": "[1]", "result": 754, "unit": "µM"}
    ]},
    {"compound": "O=C(O)Cc1ccccc1Nc1c(Cl)cccc1Cl", "note": "[diclofenac]", "values": [
      {"measurement": "IC50", "setting": "[1]", "result": 179, "unit": "µM"},
      {"measurement": "IC50", "setting": "[2]", "result": 331, "unit": "µM"}
    ]},
    {"compound": "N[C@@H]1[C@H]2CN(c3nc4c(cc3F)c(=O)c(C(=O)O)cn4-c3ccc(F)cc3F)C[C@@H]12", "note": "[trovafloxacin]", "values": [
      {"measurement": "IC50", "setting": "[3]; absence of LPS (−LPS), read-out: IC50 (hepatotoxic threshold) of induced toxicity without LPS", "result": 220, "unit": "µM"},
      {"measurement": "IC50", "setting": "[3]; presence of LPS (+LPS), read-out: IC50 (hepatotoxic threshold) of induced toxicity in the presence of LPS", "result": 71, "unit": "µM"}
    ]},
    {"compound": "lipopolysaccharide [LPS]", "values": [
      {"measurement": "increase in IL-6 secretion", "setting": "[4]", "result": "tenfold increase; also recorded: elevated levels of IL-6 secretion"}
    ]}
  ]
}
